Results from the supplement of paper PMC4862054.

Assays:
Conditions in all cases: incubation time: 72 h
Hs578T [1] = assay: drug sensitivity score (DSS), CellTox Green (DSS (AUC-based score)); higher = stronger drug effect (viability inhibition or cytotoxicity); extreme values may be limits of the assay
Summary of the method: (§1)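 Breast cancer cell lines were seeded in 20 µl suspension into 384-well plates already holding compound and incubated for 72 h. Each compound was tested at 5 concentrations in 10-fold steps across its own 10,000-fold range. Plates were normalised to 0.1 % DMSO and a positive kill control after CellTox Green and then CellTiter-Glo readings. The area under the fitted dose-response curve served as the basis for the drug sensitivity score.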

HCC1143 = assay: as above
Summary of the method: as §1

DU-4475 = assay: as above
Summary of the method: as §1

MDA-MB-436 [2] = assay: as above
Summary of the method: as §1

MFM-223 [3] = assay: as above
Summary of the method: as §1

CAL-85-1 [4] = assay: as above
Summary of the method: as §1

CAL-120 [5] = assay: as above
Summary of the method: as §1

BT-474 [6] = assay: as above
Summary of the method: as §1

MDA-MB-231 [7] = assay: as above
Summary of the method: as §1

HCC1599 [8] = assay: as above
Summary of the method: as §1

Hs578T [9] = assay: drug sensitivity score (DSS), CellTiter-Glo (DSS (AUC-based score)); higher = stronger drug effect (viability inhibition or cytotoxicity); extreme values may be limits of the assay
Summary of the method: as §1

HDQ-P1 = assay: as above
Summary of the method: as §1

MDA-MB-453 = assay: as above
Summary of the method: as §1

MDA-MB-436 [10] = assay: as above
Summary of the method: as §1

HCC1937 = assay: as above
Summary of the method: as §1

MFM-223 [11] = assay: as above
Summary of the method: as §1

CAL-148 = assay: as above
Summary of the method: as §1

CAL-85-1 [12] = assay: as above
Summary of the method: as §1

MDA-MB-468 = assay: as above
Summary of the method: as §1

CAL-120 [13] = assay: as above
Summary of the method: as §1

CAL-51 = assay: as above
Summary of the method: as §1

MCF-10A = assay: as above
Summary of the method: as §1

SK-BR-3 = assay: as above
Summary of the method: as §1

BT-549 = assay: as above
Summary of the method: as §1

BT-474 [14] = assay: as above
Summary of the method: as §1

MDA-MB-231 [15] = assay: as above
Summary of the method: as §1

HCC1599 [16] = assay: as above
Summary of the method: as §1

Row | SMILES | drug sensitivity score (Hs578T [1]) | drug sensitivity score (HCC1143) | drug sensitivity score (DU-4475) | drug sensitivity score (MDA-MB-436 [2]) | drug sensitivity score (MFM-223 [3]) | drug sensitivity score (CAL-85-1 [4]) | drug sensitivity score (CAL-120 [5]) | drug sensitivity score (BT-474 [6]) | drug sensitivity score (MDA-MB-231 [7]) | drug sensitivity score (HCC1599 [8]) | drug sensitivity score (Hs578T [9]) | drug sensitivity score (HDQ-P1) | drug sensitivity score (MDA-MB-453) | drug sensitivity score (MDA-MB-436 [10]) | drug sensitivity score (HCC1937) | drug sensitivity score (MFM-223 [11]) | drug sensitivity score (CAL-148) | drug sensitivity score (CAL-85-1 [12]) | drug sensitivity score (MDA-MB-468) | drug sensitivity score (CAL-120 [13]) | drug sensitivity score (CAL-51) | drug sensitivity score (MCF-10A) | drug sensitivity score (SK-BR-3) | drug sensitivity score (BT-549) | drug sensitivity score (BT-474 [14]) | drug sensitivity score (MDA-MB-231 [15]) | drug sensitivity score (HCC1599 [16])
1 | COc1ccc(-c2cc3c(C)nc(N)nc3n([C@H]3CC[C@H](OCCO)CC3)c2=O)cn1 | 2 | 0 | 0 | 0 | 0 | 4.01 | 0 | 11.5 | 14.1 | 0 | 18 | 18.7 | 21.9 | 14.4 | 15.1 | 17 | 17.1 | 18.5 | 18.8 | 17.1 | 22.6 | 18.3 | 22.1 | 18.7 | 16.4 | 18.4 | 9.17
2 | COc1cc(CCc2cc(NC(=O)c3ccc(N4CC(C)NC(C)C4)cc3)n[nH]2)cc(OC)c1 (stereo unspecified) [AZD4547] | 0 | 3.67 | 0 | 0 | 0 | 0 | 0.0106 | 0 | 0 | 0 | 0.967 | 0 | 0.805 | 0 | 0 | 12.2 | 0 | 0 | 0 | 3.61 | 0 | 1.73 | 0 | 0.487 | 0 | 0 | 0
3 | c1cc(CN2CCCNCCNCCCNCC2)ccc1CN1CCCNCCNCCCNCC1 [Plerixafor] | 0 | 0 | 0 | 0 | 0 | 0 | 0 | 0 | 0 | 0 | 0 | 0 | 0 | 0 | 0 | 0 | 0 | 0 | 0 | 0 | 0 | 0 | 0 | 0 | 0 | 0 | 0
4 | Cc1ccc(Nc2nccc(N(C)c3ccc4c(C)n(C)nc4c3)n2)cc1S(N)(=O)=O [Pazopanib] | 0 | 1.06 | 0 | 0 | 0 | 0.186 | 0 | 0 | 0 | 0 | 0.162 | 0 | 0 | 0 | 0 | 6.2 | 0 | 0 | 0 | 0.234 | 0 | 0 | 0 | 2.29 | 0 | 0 | 0
5 | O=C(CCBr)N1CCN(C(=O)CCBr)CC1 [Pipobroman] | 0 | 1.77 | 0 | 0 | 0 | 0 | 0 | 0 | 0 | 0 | 0 | 0 | 0 | 0 | 0 | 0 | 0 | 0 | 0 | 0 | 1.64 | 0 | 0 | 0 | 0 | 0 | 0
6 | CS(=O)(=O)N1CCN(Cc2cc3nc(-c4cccc5[nH]ncc45)nc(N4CCOCC4)c3s2)CC1 [Pictilisib] | 0 | 0 | 0 | 0 | 4.88 | 3.76 | 0 | 1.54 | 0 | 0 | 7.69 | 11.9 | 13.1 | 5.3 | 5.69 | 7.5 | 8.61 | 8.59 | 6.39 | 7.47 | 10.1 | 13.3 | 14.2 | 9.15 | 6.27 | 6.01 | 0
7 | Cn1cc(CNCC2CCN(c3ncc(C(=O)NO)cn3)CC2)c2ccccc21 [Quisinostat] | 13.2 | 2.18 | 2.71 | 0 | 4.71 | 20.1 | 13.6 | 11 | 13.6 | 1.48 | 13.7 | 10.3 | 23.3 | 9.76 | 8.41 | 9.28 | 18.3 | 16.4 | 13.6 | 12.3 | 12.1 | 11.5 | 19.3 | 11.9 | 13.7 | 13.2 | 12.5
8 | CNC(=O)c1cc(Oc2ccc(NC(=O)Nc3ccc(Cl)c(C(F)(F)F)c3)cc2)ccn1 [Sorafenib] | 0 | 0 | 0 | 0 | 0 | 0 | 0 | 0 | 0 | 0 | 0 | 0 | 0 | 0 | 0 | 0 | 0 | 0 | 0 | 0 | 0 | 0 | 0 | 0 | 0 | 0 | 0
9 | CCN(CC)CCNC(=O)c1c(C)[nH]c(/C=C2\C(=O)Nc3ccc(F)cc32)c1C [Sunitinib] | 2.45 | 0 | 0 | 0 | 0 | 0 | 0 | 0 | 0 | 0 | 0 | 0 | 0 | 0 | 0 | 0 | 0 | 0 | 0 | 0 | 0 | 0 | 0 | 0 | 0 | 0 | 0
10 | Cc1cccc(-c2nn3c(c2-c2ccnc4ccc(C(N)=O)cc24)CCC3)n1 [Galunisertib] | 0 | 0 | 0 | 0.892 | 0 | 0 | 0 | 0 | 0 | 0 | 0 | 0 | 0 | 0 | 0 | 0 | 0 | 0 | 0 | 0 | 0.026 | 0 | 0 | 0 | 0 | 0 | 0
11 | COc1nc(N)nc2c1ncn2[C@@H]1O[C@H](CO)[C@@H](O)[C@@H]1O [Nelarabine] | 0 | 0 | 0 | 0 | 0 | 0 | 0 | 0 | 0 | 0 | 0 | 0 | 0 | 0.149 | 0 | 0 | 0 | 0 | 0 | 0 | 0 | 0 | 0 | 0 | 1.66 | 0 | 0
12 | Cc1nc(Nc2ncc(C(=O)Nc3c(C)cccc3Cl)s2)cc(N2CCN(CCO)CC2)n1 [Dasatinib] | 6.23 | 0 | 0 | 0 | 0 | 6.5 | 0 | 0 | 4.62 | 0 | 8.38 | 14.9 | 0 | 0.821 | 6.2 | 0 | 0 | 8.17 | 4.01 | 8.55 | 11.8 | 15.9 | 0 | 7.26 | 11.4 | 14.2 | 0
13 | Nc1cccc2c1CN(C1CCC(=O)NC1=O)C2=O (stereo unspecified) [Lenalidomide] | 0 | 0 | 0 | 0 | 0 | 0 | 0 | 0 | 0 | 0 | 0 | 0 | 0 | 0 | 0 | 0 | 0 | 0 | 0 | 2.82e-05 | 0 | 0 | 0 | 0 | 0 | 0 | 0
